Data reported in patent US20220226337A1 (Gilead Sciences, Inc., priority 2018, published 2022).

The molecules below were run against T1, α4β7 integrin interaction with MadCAM-1 (RPMI8866 cells) (Homo sapiens, UniProt P13612+P26010) (assay: α4β7 Integrin Cell Capture Assay). Details: capture of α4β7 integrin expressing RPMI8866 cells on recombinant MadCAM-1 extracellular domain-coated plate; 0.5 mM MnCl2.
T1 construct: α4β7 integrin expressing cells; endogenous in cells; host or cells: RPMI8866 cells
T1 sequence (P13612 34-1032): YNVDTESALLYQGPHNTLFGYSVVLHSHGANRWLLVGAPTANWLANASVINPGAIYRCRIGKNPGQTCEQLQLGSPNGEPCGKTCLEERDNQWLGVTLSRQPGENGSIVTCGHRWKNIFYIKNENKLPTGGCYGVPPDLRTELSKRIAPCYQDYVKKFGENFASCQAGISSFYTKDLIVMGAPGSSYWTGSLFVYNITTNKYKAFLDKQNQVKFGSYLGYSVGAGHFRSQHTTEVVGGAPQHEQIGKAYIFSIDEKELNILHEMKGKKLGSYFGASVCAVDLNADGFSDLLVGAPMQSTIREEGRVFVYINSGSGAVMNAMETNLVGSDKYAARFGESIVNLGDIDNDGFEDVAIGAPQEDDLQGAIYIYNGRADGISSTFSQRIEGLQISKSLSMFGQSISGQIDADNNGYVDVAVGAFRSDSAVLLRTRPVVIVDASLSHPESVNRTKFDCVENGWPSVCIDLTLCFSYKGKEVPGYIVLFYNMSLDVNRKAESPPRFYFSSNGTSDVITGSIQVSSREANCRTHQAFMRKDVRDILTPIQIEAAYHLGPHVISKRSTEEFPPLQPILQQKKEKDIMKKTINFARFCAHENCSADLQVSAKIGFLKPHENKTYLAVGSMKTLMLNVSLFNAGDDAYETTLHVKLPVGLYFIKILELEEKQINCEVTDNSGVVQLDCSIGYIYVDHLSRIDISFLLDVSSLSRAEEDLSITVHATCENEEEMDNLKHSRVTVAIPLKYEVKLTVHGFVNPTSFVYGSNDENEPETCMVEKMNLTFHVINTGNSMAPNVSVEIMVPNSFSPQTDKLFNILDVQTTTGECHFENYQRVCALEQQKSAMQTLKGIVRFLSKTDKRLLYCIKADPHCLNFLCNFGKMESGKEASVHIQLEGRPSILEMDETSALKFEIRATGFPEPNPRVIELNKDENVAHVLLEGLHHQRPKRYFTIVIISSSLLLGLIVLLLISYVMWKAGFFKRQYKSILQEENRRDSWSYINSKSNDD
T1 sequence (P26010 20-798): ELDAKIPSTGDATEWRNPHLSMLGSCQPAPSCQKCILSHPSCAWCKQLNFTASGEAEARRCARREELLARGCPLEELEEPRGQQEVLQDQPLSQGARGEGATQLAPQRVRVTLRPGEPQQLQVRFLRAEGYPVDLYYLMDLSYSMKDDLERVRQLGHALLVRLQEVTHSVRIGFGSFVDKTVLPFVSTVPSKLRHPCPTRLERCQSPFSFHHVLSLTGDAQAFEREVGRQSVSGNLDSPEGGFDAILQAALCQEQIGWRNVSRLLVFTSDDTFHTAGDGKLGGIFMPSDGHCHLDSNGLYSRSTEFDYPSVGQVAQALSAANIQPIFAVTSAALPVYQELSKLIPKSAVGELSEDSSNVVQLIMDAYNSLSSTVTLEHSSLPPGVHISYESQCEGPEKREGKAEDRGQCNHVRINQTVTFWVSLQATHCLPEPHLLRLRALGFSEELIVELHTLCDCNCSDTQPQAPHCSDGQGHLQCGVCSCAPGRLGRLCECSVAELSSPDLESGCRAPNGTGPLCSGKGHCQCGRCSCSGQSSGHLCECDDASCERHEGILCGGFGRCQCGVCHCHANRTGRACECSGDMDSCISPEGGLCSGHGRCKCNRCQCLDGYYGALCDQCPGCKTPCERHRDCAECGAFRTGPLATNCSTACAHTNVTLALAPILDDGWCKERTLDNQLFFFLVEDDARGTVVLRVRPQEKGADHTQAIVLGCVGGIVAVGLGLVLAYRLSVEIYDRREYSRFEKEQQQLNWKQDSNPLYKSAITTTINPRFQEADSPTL
Format: cell-based
Summary of the method: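 RPMI8866 cells (0.5×10^6 cells/mL in DMEM + 0.5% FBS + 0.5 mM MnCl2) preincubated with compound 1 h at 37 °C, then allowed to adhere 30 min at 37 °C to plates coated with MAdCAM-1 extracellular domain (1.0 μg/mL). Bound cells fixed with 2% glutaraldehyde, Hoechst-stained, imaged and counted; EC50 from cell count versus concentration.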
O=C(N[C@@H](Cc1ccc(-c2c(Cl)cc(F)cc2Cl)c2c1[C@H]1C[C@H]1CO2)C(=O)O)c1c(Cl)cccc1Cl (single isomer, unassigned) [Example 81] showed an EC50 of 109 nM.
O=C(N[C@@H](Cc1ccc(-c2c(Cl)cc(F)cc2Cl)c2c1[C@@H]1C[C@@H]1CO2)C(=O)O)c1c(F)cccc1F (single isomer, unassigned) [Example 79] was tested, and the EC50 was 33.1 nM.
In the case of CC[C@@H](Nc1cc(F)c(C(=O)N[C@@H](Cc2ccc(-c3nc(C)c(C)n(C)c3=O)c3c2CCCO3)C(=O)O)c(F)c1F)C(F)(F)F [Example 122], the EC50 is reported as 0.271 nM.
With O=C(N[C@@H](Cc1ccc(-c2cccc3c2OCCC3)c2c1CCCO2)C(=O)O)c1c(Cl)cccc1Cl [Example 67, (S)-3-([8,8′-bichroman]-5-yl)-2-(2,6-dichlorobenzamido)propanoic acid] the EC50 was 40.9 nM.
In the case of O=C1CCc2c(C[C@H](NC(=O)c3c(F)cccc3F)C(=O)O)ccc(-c3c(Cl)cc(F)cc3Cl)c2N1 [Example 103, (S)-3-(8-(2,6-dichloro-4-fluorophenyl)-2-oxo-1,2,3,4-tetrahydroquinolin-5-yl)-2-(2,6-difluorobenzamido)propanoic acid], the EC50 is reported as 96 nM.
Work on O=C(N[C@@H](Cc1ccc(-c2c(Cl)cc(F)cc2Cl)c2c1OCCCO2)C(=O)O)c1c(F)cccc1F [Example 96, (S)-3-(9-(2,6-dichloro-4-fluorophenyl)-3,4-dihydro-2H-benzo[b][1,4]dioxepin-6-yl)-2-(2,6-difluorobenzamido)propanoic acid] yielded an EC50 of 42.3 nM.
In the case of Cc1cc(C(F)(F)F)c(-c2ccc(C[C@H](NC(=O)c3c(F)cc(N4CCOC[C@@H]4C(F)(F)F)cc3F)C(=O)O)c3c2OCCC3)c(=O)n1C (single isomer, unassigned) [Example 40], the EC50 is reported as 0.889 nM.
Cc1nc(-c2ccc(C[C@H](NC(=O)c3c(F)cc(N4CCOC[C@@H]4C(F)(F)F)cc3F)C(=O)O)c3c2OCCC3)c(=O)n(C)c1C [Example 108, (S)-2-(2,6-difluoro-4-((R)-3-(trifluoromethyl)morpholino)benzamido)-3-(8-(4,5,6-trimethyl-3-oxo-3,4-dihydropyrazin-2-yl)chroman-5-yl)propanoic acid] showed an EC50 of 0.26 nM.
For CC[C@@H](Nc1cc(F)c(C(=O)N[C@@H](Cc2ccc(-c3cc4ccccc4n(C)c3=O)c3c2COC3)C(=O)O)c(F)c1)C(F)(F)F [Example 21, (S)-2-(2,6-difluoro-4-(((R)-1,1,1-trifluorobutan-2-yl)amino)benzamido)-3-(7-(1-methyl-2-oxo-1,2-dihydroquinolin-3-yl)-1,3-dihydroisobenzofuran-4-yl)propanoic acid], the EC50 was 6 nM.
Cn1c(=O)c(-c2ccc(C[C@H](NC(=O)c3c(F)cc(N4CCOC[C@@H]4C(F)(F)F)cc3F)C(=O)O)c3c2OCCC3)cc2ccccc21 [Example 32, (S)-2-(2,6-difluoro-4-((R)-3-(trifluoromethyl)morpholino)benzamido)-3-(8-(1-methyl-2-oxo-1,2-dihydroquinolin-3-yl)chroman-5-yl)propanoic acid] gave an EC50 of 1.78 nM.
Work on Cc1cc(N2CCOC[C@@H]2C(F)(F)F)cc(F)c1C(=O)N[C@@H](Cc1ccc(-c2c(C(F)(F)F)cc(C)n(C)c2=O)c2c1COC2)C(=O)O [Example 188] yielded an EC50 of 0.227 nM.
CC[C@@H](Nc1cc(F)c(C(=O)N[C@@H](Cc2ccc(-c3c(C)n(C)c(=O)n(C)c3=O)c3c2COC3)C(=O)O)c(F)c1)C(F)(F)F [Example 15, (S)-2-(2,6-difluoro-4-(((R)-1,1,1-trifluorobutan-2-yl)amino)benzamido)-3-(7-(1,3,6-trimethyl-2,4-dioxo-1,2,3,4-tetrahydropyrimidin-5-yl)-1,3-dihydroisobenzofuran-4-yl)propanoic acid] was tested, and the EC50 was 0.939 nM.
CC[C@@H](Nc1cc(F)c(C(=O)N[C@@H](Cc2ccc(-c3c(C(F)(F)F)cc(C)n(C)c3=O)c3c2CCC3)C(=O)O)c(F)c1)C(F)(F)F [Example 201] gave an EC50 of 0.63 nM.
C[C@@H](Nc1cc(F)c(C(=O)N[C@@H](Cc2ccc(-c3cn(C)c(=O)n(C)c3=O)c3c2CCCO3)C(=O)O)c(F)c1)C(F)(F)F [Example 88, (S)-2-(2,6-difluoro-4-(((R)-1,1,1-trifluoropropan-2-yl)amino)benzamido)-3-(8-(1,3-dimethyl-2,4-dioxo-1,2,3,4-tetrahydropyrimidin-5-yl)chroman-5-yl)propanoic acid] gave an EC50 of 2.42 nM.
With CC[C@@H](Nc1cc(F)c(C(=O)N[C@@H](Cc2ccc(-c3c(C)n(C)c(=O)n(C)c3=O)c3c2OCCO3)C(=O)O)c(F)c1)C(F)(F)F [Example 10, (S)-2-(2,6-difluoro-4-(((R)-1,1,1-trifluorobutan-2-yl)amino)benzamido)-3-(8-(1,3,6-trimethyl-2,4-dioxo-1,2,3,4-tetrahydropyrimidin-5-yl)-2,3-dihydrobenzo[b][1,4]dioxin-5-yl)propanoic acid] the EC50 was 0.864 nM.
Work on Cc1cc(C(F)(F)F)c(-c2ccc(C[C@H](NC(=O)c3c(F)cc(N[C@H](C)C(F)(F)F)cc3F)C(=O)O)c3c2COC3)c(=O)n1C [Example 20, (S)-2-(2,6-difluoro-4-(((R)-1,1,1-trifluoropropan-2-yl)amino)benzamido)-3-(7-(1,6-dimethyl-2-oxo-4-(trifluoromethyl)-1,2-dihydropyridin-3-yl)-1,3-dihydroisobenzofuran-4-yl)propanoic acid] yielded an EC50 of 0.242 nM.
Cc1c(-c2ccc(C[C@H](NC(=O)c3c(Cl)cccc3Cl)C(=O)O)c3c2OCCC3)c(=O)n(C)c2ccccc12 (single isomer, unassigned) [Example 61] was tested, and the EC50 was 2.29 nM.
Molecule Cc1cc(N2CCOC[C@@H]2C(F)(F)F)cc(F)c1C(=O)N[C@@H](Cc1ccc(-c2cc3cnccc3n(C)c2=O)c2c1COC2)C(=O)O [Example 189] has an EC50 of 0.242 nM.
CCOCc1cc(OC)c(-c2ccc(C[C@H](NC(=O)c3c(F)cccc3F)C(=O)O)c3c2CCCO3)c(OC)c1 [Example 99, (S)-2-(2,6-difluorobenzamido)-3-(5-(4-(ethoxymethyl)-2,6-dimethoxyphenyl)chroman-8-yl)propanoic acid] was tested, and the EC50 was 9.33 nM.
In the case of Cc1cc(N2CCOC[C@@H]2C(F)(F)F)cc(F)c1C(=O)N[C@@H](Cc1ccc(-c2c(C(F)(F)F)cc(C)n(C)c2=O)c2c1CCCO2)C(=O)O [Example 135], the EC50 is reported as 0.094 nM.
For Cc1c(C)c(C)n(C)c(=O)c1-c1ccc(C[C@H](NC(=O)c2c(F)cc(N3CCOC[C@@H]3C(F)(F)F)cc2F)C(=O)O)c2c1OCCC2 [Example 154], the EC50 was 0.358 nM.
Molecule Cc1cc(C(F)(F)F)c(-c2ccc(C[C@H](NC(=O)c3c(F)cc(N[C@H](C)C(F)(F)F)cc3F)C(=O)O)c3c2OCCC3)c(=O)n1C (single isomer, unassigned) [Example 42] has an EC50 of 1.42 nM.
Molecule Cc1cc(N2CCOC[C@@H]2C(F)(F)F)cc(F)c1C(=O)N[C@@H](Cc1ccc(-c2c(C)c(C(F)(F)F)cn(C)c2=O)c2c1COC2)C(=O)O [Example 187] has an EC50 of 0.41 nM.
Cc1cn(C)c(=O)c(-c2ccc(C[C@H](NC(=O)c3c(C)cc(N4CCOC[C@@H]4C(F)(F)F)cc3F)C(=O)O)c3c2OCCC3)n1 [Example 163] was tested, and the EC50 was 0.731 nM.
Cc1cc(N2CCOC[C@@H]2C(F)(F)F)cc(F)c1C(=O)N[C@@H](Cc1ccc(-c2c(C)c(C)c(C)n(C)c2=O)c2c1CCCO2)C(=O)O [Example 151] was tested, and the EC50 was 0.144 nM.
